The record followed here is article PMC9313426, “CDI Exerts Anti-Tumor Effects by Blocking the FoxM1-DNA Interaction” (Biomedicines, 2022).

For the test, the target named is T1, FoxM1 (Homo sapiens, UniProt Q08050).
T1 sequence (Q08050 222-360 limits assumed): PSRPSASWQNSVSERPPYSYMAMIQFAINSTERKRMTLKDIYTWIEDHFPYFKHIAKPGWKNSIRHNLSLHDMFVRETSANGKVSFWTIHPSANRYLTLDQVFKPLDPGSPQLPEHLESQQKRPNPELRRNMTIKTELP
Nature of the test: TR-FRET FoxM1-DBD/biotinylated dsDNA binding inhibition assay. A general note: TR-FRET usually uses a lanthanide donor and a delayed reading to cut background.

In the case of `CC(C)C1=C[C@@]23CC[C@@H]4[C@](C)(CCC[C@@]4(C)C(=O)O)[C@H]2C[C@@H]1[C@H]1C(=O)C=C(Cl)C(=O)[C@H]13` [CDI, (4aR,4bS,6aR,7R,10aR,10bR,12R,12aR)-3-Chloro-4,4a,5,6,6a,7,8,9,10,10a,10b,11,12,12a-tetradecahydro-7,10a-dimethyl-13-(1-methylethyl)-1,4-dioxo-1H-4b,12-ethenochrysene-7-carboxylic acid], the IC50 (commonly the point on the concentration scale where inhibition reaches its midpoint) was 4.9 ± 1.5 µM. The figure for `Nc1c(C(=O)Nc2ccc(F)cc2)sc2nc(-c3cccs3)cc(C(F)(F)F)c12` [FDI-6] is 3.7 ± 0.9 µM.
